In patent publication US20230219969A1 (priority 2020, published 2023):

What was measured:
5HT2A [1] = target: T1, 5HT2A (Homo sapiens, UniProt P28223); assay: Serotonin 5-HT2A in vitro radioligand binding competition assay ([3H]-DOI); parameters: purchased Epics Therapeutics S.A. (Belgium) FAST-0505B; settings: [3H]-DOI competition, membrane extracts; read-out: 5-HT2A Radioligand Binding Activity
Experimental: Serotonin 5-HT2A In Vitro Radioligand Binding Competition Assay. The 5-HT2A radioligand binding competition assay was performed at Epics Therapeutics S.A. (Belgium, FAST-0505B) using conventional methods. Briefly, competition binding is performed in duplicate in the wells of a 96 well plate (Master Block, Greiner, 786201) containing binding buffer (optimized for each receptor), membrane extracts (amount of protein/well optimized for each receptor), radiotracer [^3H]-DOI (final concentration optimized for each receptor) and test compound. Nonspecific binding is determined by co-incubation with 200-fold excess of cold competitor. The samples are incubated in a final volume of 0.1 ml at a temperature and for a duration optimized for each receptor and then filtered over filter plates. Filters are washed six times with 0.5 ml of ice-cold washing buffer (optimized for each receptor) and 50 μl of Microscint 20 (Packard) are added in each well. The plates are incubated 15 min on an orbital shaker and then counted with a TopCount™ for 1 min/well.
(§1) The compounds provided herein were tested in the Serotonin 5-HT2A and 5-HT2C in vitro radioligand binding and cellular IPOne agonism assays. The binding and agonism functional potencies of several compound provided herein compounds (as indicated by their IC50s or EC50s) are shown in Table 11.

Rat cortical neurons [2] = assay: Neurite Outgrowth Assay (Procedure A); format: cell-based; settings: 1 hour treatment at DIV 4, analyzed DIV 7
Excerpt: Neurite outgrowth assay. Changes in the pattern of neurite outgrowth have been implicated in neurodegenerative disorders as well as traumatic injuries. The discovery of new compounds that can positively affect neuritogenesis are important for developing new therapeutics for neurological diseases. Measurement of neurite outgrowth of rat cortical neurons using an automated image-based assay is used to determine the neuroplastic effects of the compounds provided herein. In some embodiments, a compound provided herein increases the pattern of neurite outgrowth. In some embodiments, a compound provided herein increases neurite average length compared to a control. In some embodiments, a compound provided herein increases neurite branch points compared to a control. In some embodiments, a compound provided herein increases neurite average length and neurite branch points compared to a control.
In some embodiments, the plastogenic potential of compounds provided herein is assessed by measuring the changes in neurite development. In some embodiments, the plastogenic potential (as measured by Neurite Outgrowth Procedure A) of the compounds is shown in Table 10.
Neurite Outgrowth Assay (Procedure A). Rat cortical neurons (20,000 cells/well) were freshly isolated from embryonic day 18 rats and cultured in Neurobasal Medium (+B27). The cultured cells were plated in 96 well-plates (avoiding external wells). At DIV 4, the neurons were treated with compound or control (10 μM) for 1 hour followed by complete washout of the compound. At DIV 7, the neurons were analyzed. The experiments were performed in triplicate. Neurite outgrowth was measured analyzing the following parameters: Number of Cell Bodies, total neurite length (pixels), Root Count, Segments, Extremities Count and node points. Changes in the pattern of neurite outgrowth of the neurons were analyzed by immunocytochemistry against […]. Pictures were acquired by the CellInsight CX7 from Thermo Fisher and analyzed using its software. Results generated in the equipment were maximum neurite length, extremity count, root count, dendrite branch points, and total neurite length. The results were compared the percent of DMSO control, representing the percentage of outgrowth compare to vehicle control in neuronal outgrowth.

Rat cortical neurons [3] = assay: Neurite Outgrowth in Primary Neuronal Cultures Assay (Procedure B); format: cell-based; parameters: key: A: Statistically significant mean increase as a percent of DMSO control at 10 μM or less; B: No statistically significant mean increase as a percent of DMSO control at 10 μM or less; settings: 72 h, percent of DMSO control at 10 μM or less
Excerpt: Neurite Outgrowth in Primary Neuronal Cultures Assay (Procedure B). Changes in the pattern of neurite outgrowth have been implicated in psychiatric and neurodegenerative disorders as well as traumatic injuries. The discovery of new compounds that can positively affect neuritogenesis are important for developing new therapeutics for neurological diseases. Measurement of neurite outgrowth of rat cortical neurons using an automated image-based assay was used to determine the neuroplastic effects of the compounds of the present invention. The neurite outgrowth assay was performed at Neurofit SAS (France) as described below.
Pregnant Wistar rats (Janvier; France) were used for the study. They were delivered 6 days before their use. Upon arrival at Neurofit animal facility, they were housed one per cage and maintained in a room with controlled temperature (21-22° C.) and a reversed light-dark cycle (12 h/12 h; lights on: 17:30-05:30; lights off: 05:30-17:30) with food and water available ad libitum.
Female Wistar rats of 17 days gestation were killed by cervical dislocation and the fetuses were removed from the uterus. Their brains were placed in ice-cold medium of Leibovitz (L15, Gibco, Fisher bioblock, France). Cortices were dissected and meninges were carefully removed. The cortical neurons were dissociated by trypsinization for 30 min at 37° C. (trypsin-EDTA, Gibco) in presence of 0.1 mg/ml DNAse I (Roche, France). The reaction was stopped by addition of Dulbecco's Modified Eagle Medium (DMEM; Gibco) with 10% of fetal bovine serum (FBS; Gibco). The suspension was triturated with a 10-ml pipette and using a needle syringe 21G and centrifuged at 350×g for 10 min at room temperature. The pellet of dissociated cells was resuspended in a medium consisting of Neurobasal (Gibco) supplemented with 2% B27 supplement (Gibco), 0.5 mM L-Glutamine (Gibco), an antibiotic-antimicotic mixture. Viable cells were counted in a Neubauer cytometer using the trypan blue exclusion test (Sigma). Cells were seeded at a density of 10000 cells per well in 96-well plate (Costar) precoated with poly-L-lysine. Test compound at different concentrations were added to the cultures. Donepezil (positive control) was tested at 250 nM.
After 72 h (3 days) of plating, cultures were fixed with paraformaldehyde in PBS (4%, Sigma) for 30 min at 4° C. Then, cells were successively permeabilized with 0.1% Triton X100 for 30 min, saturated with PBS containing 3% of BSA and were incubated 1 h with anti-beta III tubulin antibody (Sigma) at 1/10 000 in PBS containing 0.5% of BSA. Cells were washed three times with PBS containing 0.5% of BSA, and they were incubated 1 h with goat anti-mouse antibody coupled with AF488 (Invitrogen A11001) diluted at 1/1000 in PBS containing 0.5% of BSA. Finally, nuclei were staining with DAPI 1 mg/ml at 1/1000 in PBS containing 0.5% of BSA. After rinsing with PBS, the plate was filmed and neurite networks were examined and analyzed using High-Content Screening (CellInsight, Thermo Scientific). The average number of neurites per neuron and the average total length of neurites per neuron were the main parameters analyzed. Analysis of data was performed using analysis of variance (ANOVA). The Fisher's Protected Least Significant Difference test was used for multiple comparisons. A p value<0.05 was considered significant. The software used is StatView 5.0 from SAS Institut.
In some embodiments, a compound of the present invention increases the pattern of neurite outgrowth. In some embodiments, a compound of the present invention increases neurite average length compared to a control. In some embodiments, a compound of the present invention increases neurite branch points compared to a control.

5HT2A [4] = target: T1, 5HT2A; assay: Serotonin 5-HT2A in vitro cellular IPOne agonism assay; format: cell-based; parameters: host or cells: CHO-K1; settings: CHO-K1 cells, IPOne HTRF; read-out: 5-HT2A IPOne Agonism Activity
Experimental: Serotonin 5-HT2A In Vitro Cellular IPOne Agonism Assay. The 5-HT2A IPOne HTRF assay was performed at Epics Therapeutics S.A. (Belgium, FAST-0505I) using conventional methods. Briefly, CHO-K1 cells expressing human recombinant 5-HT2A receptor grown to mid-log phase in culture media without antibiotics were detached with PBS-EDTA, centrifuged, and resuspended in medium without antibiotics buffer. 20,000 cells are distributed in a 96 well plate and incubated overnight at 37° C. with 5% CO2.
For agonist testing, the medium is removed and 20 μl of assay buffer plus 20 μl of test compound or reference agonist are added in each well. The plate is incubated for 60 min. at 37° C. with 5% CO2.
After addition of the lysis buffer containing IP1-d2 and anti-IP1 cryptate detection reagents, plates are incubated 1-hour at room temperature, and fluorescence ratios are measured according to the manufacturer specification, with the HTRF kit.
as §1

5HT2A [5] = target: T1, 5HT2A; assay: cell-based
Experimental: Cell lines were expanded from freezer stocks according to standard procedures. Cells were seeded in a total volume of 20 μL into black-walled, clear-bottom, Poly-D-lysine coated 384-well microplates and incubated at 37° C. for the appropriate time prior to testing. Assays were performed in 1× Dye Loading Buffer consisting of 1× Dye, 1× Additive A and 2.5 mM Probenecid in HBSS/20 mM Hepes. Probenicid was prepared fresh. Cells were loaded with dye prior to testing. Media was aspirated from cells and replaced with 20 μL Dye Loading Buffer. Cells are incubated for 30-60 minutes at 37° C.
For agonist determination, cells were incubated with sample to induce response. After dye loading, cells were removed from the incubator and 10 μL HBSS/20 mM Hepes was added. […] Cells were incubated for 30 minutes at room temperature in the dark to equilibrate plate temperature. Intermediate dilution of sample stocks was performed to generate 4× sample in assay buffer. Compound agonist activity was measured on a FLIPR Tetra (MDS). Calcium mobilization is monitored for 2 minutes and 10 μL 4× sample in HBSS/20 mM Hepes was added to the cells 5 seconds into the assay.
Compound activity was analyzed using CBIS data analysis suite (ChemInnovation, CA). For agonist mode assays, percentage activity was calculated using the following formula:
% Activity=100%×(mean RFU of test sample−mean RFU of vehicle control)/(mean MAX RFU control ligand −mean RFU of vehicle control).

5HT2A [6] = format: cell-based; settings: result in words
mice = assay: Head-twitch response (HTR) in mice; format: in vivo; settings: hallucinogenic potential
5HT2A [7] = settings: result in words

T1 sequence (P28223 whole entry): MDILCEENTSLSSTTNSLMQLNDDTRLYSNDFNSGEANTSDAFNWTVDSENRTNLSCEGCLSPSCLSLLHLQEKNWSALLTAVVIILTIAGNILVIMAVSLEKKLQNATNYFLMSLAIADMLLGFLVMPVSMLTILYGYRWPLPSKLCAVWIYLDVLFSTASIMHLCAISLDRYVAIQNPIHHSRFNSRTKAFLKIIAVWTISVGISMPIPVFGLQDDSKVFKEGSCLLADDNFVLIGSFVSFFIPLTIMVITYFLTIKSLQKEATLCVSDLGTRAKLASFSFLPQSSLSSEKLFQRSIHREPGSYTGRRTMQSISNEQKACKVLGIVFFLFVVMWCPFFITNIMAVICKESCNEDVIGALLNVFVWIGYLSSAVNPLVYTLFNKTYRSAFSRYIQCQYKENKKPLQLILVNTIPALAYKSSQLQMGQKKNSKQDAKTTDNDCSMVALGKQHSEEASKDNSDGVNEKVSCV

Structure (SMILES) | IC50 (5HT2A [1]) [µM] | Neurite Average Length @ 10 μM (Rat cortical neurons [2]) | Neurite Branch Points: @ 10 μM (Rat cortical neurons [2]) | Increase in Neurite Length (Rat cortical neurons [3]) | Increase in Neurite Number (Rat cortical neurons [3]) | EC50 (5HT2A [4]) [µM] | EC50 (5HT2A [5]) [µM] | activation of 5HT2A sensor assay in agonist mode (5HT2A [6]) | head-twitch response (HTR) (mice) | competition with 5-HT in 5HT2A sensor assay in antagonist mode (5HT2A [7])
COc1cnc2c(ccn2CCN(C)C)c1 [Example 5, 2-(5-methoxy-1H-pyrrolo[2,3-b]pyridin-1-yl)-N,N-dimethylethan-1-amine] | 0.101 to 1 | B (100%-200% vehicle) | C (<100% vehicle) | B | B | > 10 | > 110 |  |  | 
CN(C)CCn1ccc2cnccc21 [Example 7, N,N-dimethyl-2-(1H-pyrrolo[3,2-c]pyridin-1-yl)ethan-1-amine] | > 10 | B (100%-200% vehicle) | A (>200% vehicle) | A | B | > 10 | > 110 |  |  | 
CN(C)CCn1ccc2cncnc21 [Example 6, N,N-dimethyl-2-(7H-pyrrolo[2,3-d]pyrimidin-7-yl)ethan-1-amine] | 1 to 10 | A (>200% vehicle) | A (>200% vehicle) | B | B | > 10 | > 110 |  |  | 
COc1ccc2c(c1)CCN2CCN(C)C [Example 8, 2-(5-methoxyindolin-1-yl)-N,N-dimethylethan-1-amine] | > 10 | B (100%-200% vehicle) | A (>200% vehicle) | A | B | > 10 | > 110 |  |  | 
COc1ccc2[nH]cc(CCN(C)C)c2c1 [Example 5-MeO-DMT] |  |  |  |  |  |  |  | activate the 5HT2A sensor assay in agonist mode | produces a robust, dose-dependent head-twitch response | 
COc1ccc2c(ccn2CCN(C)C)n1 [Example 3, 2-(5-methoxy-1H-pyrrolo[3,2-b]pyridin-1-yl)-N,N-dimethylethan-1-amine] | 0.101 to 1 | B (100%-200% vehicle) | A (>200% vehicle) | A | B | > 10 | > 110 |  |  | 
COc1cc2ccn(CCN(C)C)c2cn1 [Example 4, 2-(5-methoxy-1H-pyrrolo[2,3-c]pyridin-1-yl)-N,N-dimethylethan-1-amine] | 1 to 10 | B (100%-200% vehicle) | B (100%-200% vehicle) | A | A | > 10 | > 110 |  |  | 
COc1ccc2c(CCN(C)C)c[nH]c2c1 [Example 6-MeO-DMT] |  |  |  |  |  |  |  | do not activate the 5HT2A sensor assay in agonist mode | does not produce a HTR | compete off 5-HT
